Assay [1] relates to two spotted spider mite (Tetranychus urticae). The experiment in a line: whole plant or invertebrate. To be noted: 72 h; for mortality at 400 ppm: read-out: TSSM activity (percent based on mites present in plants sprayed with solvent alone), 400 ppm, squash plants, three days after treatment; for mortality at 50 ppm: read-out: TSSM activity (percent based on mites present in plants sprayed with solvent alone), 50 ppm, squash plants, three days after treatment.

In assay [2] the test system is Pyricularia oryzae (rice blast). The experiment in a line: whole plant or invertebrate. Type of assay: in vivo. To be noted: Pyricularia oryzae, foliar, read-out: PYRIOR disease control, host rice; foliar spray; 400 ppm (+++: 100 ppm).
Assay [3] deals with Leptosphaeria nodorum (glume blotch). The experiment in a line: Foliar spray fungicide test, Leptosphaeria nodorum (glume blotch) on wheat. Particulars: Parastagonospora nodorum, in Triticum aestivum, foliar, read-out: LETPNO disease control, host wheat, 400 ppm (+++: 100 ppm).
The subject of assay [4] is cotton aphid (Aphis gossypii). The experiment in a line: whole plant or invertebrate. To be noted: 72 h; for mortality at 400 ppm: read-out: CA activity (percent based on aphids present in plants sprayed with solvent alone), 400 ppm, squash plants, three days after treatment; for mortality at 50 ppm: read-out: CA activity (percent based on aphids present in plants sprayed with solvent alone), 50 ppm, squash plants, three days after treatment.

In assay [5] the test system is Erysiphe graminis tritici (powdery mildew). The experiment in a line: Foliar spray fungicide test, Erysiphe graminis tritici (powdery mildew) on wheat. Particulars: Blumeria graminis, in Triticum aestivum, foliar, read-out: ERYSGT disease control, host wheat, 400 ppm (+++: 100 ppm).
Description: (§3) The test compounds were formulated for application by dissolving 50 mg of the compound into 1.25 ml of solvent. The solvent was prepared by mixing 50 ml of "Tween 20" (polyoxyethylene (20) sorbitan monolaurate emulsifier) with 475 ml of acetone and 475 ml of ethanol. The solvent/compound solution was diluted to 125 ml with deionized water. The resulting formulation contains 400 ppm test chemical. Lower concentrations were obtained by serial dilution with the solvent-surfactant mixture.
(§4) The formulated test compounds were applied by foliar spray. The following plant pathogens and their corresponding plants were employed.
(§5) The formulated technical compounds were sprayed on all foliar surfaces of the host plants to past run-off. Single pots of each host plant were placed on raised, revolving pedestals in a fume hood. Test solutions were sprayed on all foliar surfaces. All treatments were allowed to dry and the plants were inoculated with the appropriate pathogens within 24 hours.
(§6) The effectiveness of test compounds in controlling disease was rated using the following scale.
Assay [6] relates to German cockroach (Blattella germanicus). The experiment in a line: whole plant or invertebrate. In kind it is in vivo. To be noted: 240 h, ten days, read-out: GECR activity (rated on live and dead insects). Here is the method:
(§1) The compounds identified in Table I were tested for miticidal and insecticidal activity against eight species. The following abbreviations are used in the Table III:
GECR refers to German cockroach
(§2) In conducting evaluations of insecticidal activity, each test compound was formulated as a 400 ppm solution, and this solution was then diluted with water to give lesser concentrations. The 400 ppm solution was prepared by combining 19.2 mL of 0.05% solution of Tween 20 (polyoxyethylene (20) sorbitan monolaurate) in water with a solution of 8 mg of the compound in 0.8 mL of acetone/EtOH (9/1).
Activity against German cockroach (Blattella germanicus) was evaluated as follows. 8 mL of alfalfa based green insect diet material was dispensed into a one ounce diet cup. The cups were then sprayed with formulated material through a flat-fan nozzle. The test was run using concentrations of 400 ppm and 50 ppm. Treated cups were air dried for 24 hours and infested with five late third or early fourth instar German cockroaches. The cups were capped and held for ten days in an environmental growth chamber at a temperature of […]. Activity was then rated based on the total number of live and dead insects.

Assay [7] concerns Puccinia recondita tritici (leaf rust). The experiment in a line: Foliar spray fungicide test, Puccinia recondita tritici (leaf rust) on wheat. Particulars: Puccinia recondita, in Triticum aestivum, foliar, read-out: PUCCRT disease control, host wheat, 400 ppm (+++: 100 ppm).
Description: as §3, §4
Puccinia recondita PUCCRT wheat
as §5, §6
For assay [8], the system named is Plasmopara viticola (downy mildew). The experiment in a line: Foliar spray fungicide test, Plasmopara viticola (downy mildew) on grape. To be noted: Plasmopara viticola, foliar, read-out: PLASVI disease control.
Assay [9] deals with beet armyworm (Spodoptera exiqua). The experiment in a line: Activity against beet armyworm. In kind it is in vivo. To be noted: Spodoptera, 144 h, 6 days, read-out: BAW activity (rated on live and dead larvae and size of live larvae). Here is the method:
as §1
BAW refers to beet armyworm
as §2
Activity against beet armyworm (Spodoptera exiqua) was evaluated as follows. The test is run using concentrations of 400 ppm and 50 ppm. A general purpose lepidoptera artificial diet was diluted to half strength with a 5% non nutritive agar. 8 mL of this diet material was dispensed into one ounce diet cups. One hour prior to treatment, 35 to 40 eggs were dispensed onto the diet surface. The cups were then sprayed with formulated material through a flat-fan nozzle. Treated cups were air dried prior to sealing with plastic caps. The cups were held for 6 days at room temperature. Activity was then rated based on the total number of live and dead larvae, and on the size of live larvae.

Assay [10] concerns aster leafhopper (Macrosteles fascifrons). The experiment in a line: whole plant or invertebrate. In kind it is in vivo. Particulars: Macrosteles fascifrons, 24 h, read-out: ALH percent mortality. As to the method: as §1
ALH refers to aster leafhopper
as §2
Activity against aster leafhopper (Macrosteles fascifrons) was tested as follows. The test was run using concentrations of 400 ppm and 50 ppm. One ounce plastic cups containing a cotton wick was sprayed with 0.4 mL of formulated material using a flat-fan nozzle. The excess moisture was allowed to evaporate. Then five to ten carbon dioxide anesthetized adult leafhoppers were added to each cup. The cups were capped and held at room temperature for 24 hours. Percent mortality was then determined.

Assay [11] has as its system tobacco budworm (Heliothis virescens). The experiment in a line: Activity against tobacco budworm. In kind it is in vivo. To be noted: Heliothis virescens, 144 h, 6 days, read-out: TBW activity (rated on live and dead larvae and size of live larvae). As to the method:
as §1
TBW refers to tobacco budworm
as §2
Activity against tobacco budworm (Heliothis virescens) was evaluated as follows. A general purpose lepidoptera artificial diet was diluted to half strength with a 5% non nutritive agar. 8 mL of this diet material was dispensed into each one ounce diet cup. One hour prior to treatment 18 to 20 eggs were dispensed onto the diet surface. The cups were then sprayed with formulated material through a flat-fan nozzle. The test was run using concentrations of 400 ppm and 50 ppm. Treated cups were air dried prior to sealing with plastic caps. The cups were held for 6 days at room temperature. Activity was then rated based on the total number of live and dead larvae, and on the size of live larvae.

Assay [12] relates to Southern corn rootworm (Diabrotica undecimpuctata howardi Barber). The experiment in a line: whole plant or invertebrate. In kind it is in vivo. To be noted: 400 ppm, soil concentration of 24 ppm, 3-4 days, read-out: SCRW mortality. Here is the method: as §1
SCRW refers to southern corn rootworm
as §2
Activity on Southern corn rootworm (Diabrotica undecimpuctata howardi Barber) was evaluated by adding one mL of test solution containing a predetermined concentration of test compound to a cup containing a kernel of corn in 16 g of sterile soil. This produces a soil concentration of 24 ppm. After 1.5 to 2 hours of drying, five 4th instar corn rootworm larvae were added to the individual cups. Mortality was measured at 3-4 days by emptying the cup onto a pan and inspecting the soil for live rootworms.

The results in this text go back to US5326766A, “4-(2-(4-(2-pyridinyloxy)phenyl)ethoxy)quinazoline and analogues thereof” (priority 1992, dated 1994).

On to `ClC(Cl)(Cl)c1ccc(Oc2ccc(CCOc3ncnc4ccccc34)cc2)nc1` [Compound 26], for which the mortality at 400 ppm in assay [1] was found to be 100%; in assay [4] it was 100%; in assay [6], 0%; in assay [10], 100%. The pest or weed control at 400 µg/mL in [2] fell in the range of 20 to 89%; in assay [3], 0 to 19%; in [5], 0 to 19%; in assay [7], 90 to 100%; in assay [8], 90 to 100%. For the same molecule, the pest or weed control at 400 ppm is 0% in [9] and 100% in assay [11]. Also, the mortality at 24 ppm in [12] was 0%.

For `N#Cc1ccc(Oc2ccc(CCOc3ncnc4c(F)cccc34)cc2)nc1` [Compound 20], the mortality at 400 ppm in [1], in assay [4], in [6] and in assay [10] was 0% throughout. The pest or weed control at 400 µg/mL in assay [2] lay within 90 to 100%; in assay [3], 20 to 89%; in assay [5] it was 90 to 100%; in [7], 90 to 100%; in assay [8] it was 90 to 100%. Moreover, the pest or weed control at 400 ppm in assay [9] and in [11] was 0% throughout. Besides, the mortality at 24 ppm in assay [12] came to 0%.

Turning to `Fc1cccc2c(OCCc3ccc(Oc4ccc(C(Cl)(Cl)Cl)cn4)cc3)ncnc12` [Compound 25], the mortality at 400 ppm in assay [1] came to 90%; in assay [4] it was 85%; in [6], 0%; in assay [10], 0%. Moreover, the pest or weed control at 400 µg/mL in assay [2] fell in the range of 20 to 89%; in assay [3], 0 to 19%; in [5], 20 to 89%; in assay [7] it was 90 to 100%; in assay [8], 90 to 100%. Further, the pest or weed control at 400 ppm in [9] came to 0%; in assay [11], 100%. Besides, the mortality at 24 ppm in [12] was found to be 0%.

In the case of `N#Cc1ccc(Oc2ccc(CCOc3ncnc4ccccc34)cc2)nc1` [Compound 21], the mortality at 400 ppm in assay [1] was 0%; in assay [4], 100%; in assay [6], 0%; in [10], 60%. Moreover, the pest or weed control at 400 µg/mL in assay [2] was in the range of 20 to 89%; in [3] it was 20 to 89%; in assay [5], 20 to 89%; in [7], 90 to 100%; in assay [8] it was 90 to 100%. Also, the pest or weed control at 400 ppm in [9] and in [11] was 0% each time. In addition, the mortality at 24 ppm in [12] stood at 0%.

With `Fc1cccc2ncnc(OCCc3ccc(Oc4ccc(Cl)cn4)cc3)c12` [Compound 16], the mortality at 50 ppm in assay [1] worked out at 100%; in [4] it was 100%; in assay [6] it was 0%; in assay [10], 80%. In addition, the mortality at 400 ppm came to 100% in assay [1], 100% in [4], 40% in assay [6] and 100% in assay [10]. Moreover, the pest or weed control at 400 µg/mL in assay [2] is 90 to 100%; in assay [3], 20 to 89%; in assay [5], 90 to 100%; in [7], 90 to 100%; in [8], 90 to 100%. Moreover, the pest or weed control at 50 ppm in assay [9] and in assay [11] was 100% each time. In addition, the pest or weed control at 400 ppm in assay [9] and in assay [11] was 100% each time. The mortality at 24 ppm in assay [12] stood at 80%.

Regarding `O=[N+]([O-])c1ccc(Oc2ccc(CCOc3ncnc4c(F)cccc34)cc2)nc1` [Compound 23], the mortality at 50 ppm in [1] came out at 0%; in [4], 0%; in [6], 0%; in assay [10] it was 60%. Besides, the mortality at 400 ppm amounted to 50% in assay [1], 90% in assay [4], 40% in assay [6] and 80% in assay [10]. Further, the pest or weed control at 400 µg/mL in assay [2] was in the range of 20 to 89%; in assay [3] it was 20 to 89%; in assay [5], 20 to 89%; in assay [7], 90 to 100%; in [8] it was 90 to 100%. Also, the pest or weed control at 50 ppm in [9] and in assay [11] was 100% in each case. In addition, the pest or weed control at 400 ppm in assay [9] and in assay [11] was 100% each time. Moreover, the mortality at 24 ppm in assay [12] was determined as 0%.

Turning to `FC(F)(F)c1ccc(Oc2ccc(CCNc3ncnc4ccccc34)cc2)nc1` [Compound 29], the mortality at 50 ppm in [1] came out at 100%; in assay [4] it was 90%; in [6], 0%; in assay [10], 100%. For the same molecule, the mortality at 400 ppm was 100% in [1], 100% in assay [4], 20% in assay [6] and 100% in assay [10]. In addition, the pest or weed control at 400 µg/mL in assay [2] was 90 to 100%; in assay [3] it was 20 to 89%; in [5], 90 to 100%; in assay [7], 90 to 100%; in [8], 90 to 100%. Besides, the pest or weed control at 50 ppm in [9] and in assay [11] was 100% throughout. For the same molecule, the pest or weed control at 400 ppm in assay [9] and in assay [11] was 100% each time. For the same molecule, the mortality at 24 ppm in [12] was 100%.
